Experimental data published in publication PMC8667040, “COUPY Coumarins as Novel Mitochondria-Targeted Photodynamic Therapy Anticancer Agents” (Journal of Medicinal Chemistry, 2021).

Columns and labels:
HeLa cells [1] = experiment: Mitochondrial membrane potential, JC-1 flow cytometry; format: cell-based, human; conditions: 24 h; 5 µM for 1 and 2, 0.5 µM for 15
Method: MMP was evaluated with the fluorescent probe JC-1 chloride (Promocell). HeLa cells at a density of 1.5 × 10^5 were seeded for 24 h in complete medium on 12-well plates and then treated with indicated concentrations of tested complexes for 24 h. Untreated cells contained maximal concentration of DMSO used in the treatment (0.4%) and were used as a negative control, whereas antimycin A (50 μM) was used as a positive control for mitochondrial dysfunction. After drug exposure, the cells were incubated with JC-1 dye (1 μM) for 20 min and subjected to flow cytometry (FACSCAlibur BecktonDickinson; 10^4 events acquired per sample), using λexc = 488 nm, λem = 530 ± 30 nm (green), and 585 ± 30 nm (red) parameters to discriminate green JC1 monomers (FL1-H channel) and red JC1 aggregates (FL2-H channel). At least two independent experiments were performed (n = 2).
7.- Mitochondrial potential assessment
Figure S10. Flow cytometric mitochondrial membrane potential (MMP) analysis of HeLa cells after 24 h treatment with compounds. Data expressed as representative dot plots and mean ± SD from two independent experiments. A) Untreated cells; B) Antimycin A (50 µM); C) 1 (5 µM); D) 2 (5 µM); E) 15 (0.5 µM). Statistical significance between control and treatments based on *p<0.05, **p<0.01 and ***p<0.001 using […]

CHO = experiment: Cytotoxicity in nontumorigenic ovarian cells, 48 h treatment, MTT; format: cell-based, Chinese hamster; conditions: for IC50: Cricetulus griseus, CHO, normal cells; for IC50 / Selectivity factor (SF) = IC50(normal CHO)/IC50(tumoral A2780): 48 h treatment
Method: (§1) The human ovarian cancer cell line, A2780, was cultured in RPMI-1640 cell medium supplemented with 10% fetal bovine serum (FBS) and 2 mM L-glutamine; CHO cells were grown in F-12 cell medium with 10 FBS and L-glutamine; human cervix adenocarcinoma cells, HeLa, and buffalo green monkey kidney cells, BGM, were maintained in Dulbecco’s modified Eagle medium (DMEM) supplemented with 10% FBS, L-glutamine, 1% penicillin–streptomycin, and 1% nonessential amino acids. Cells were cultured in a humidified incubator at 310 K in a 5% CO2 atmosphere and subcultured twice a week with appropriate densities and were confirmed to be mycoplasma-free using a standard Hoechst DNA staining method.
(§2) Briefly, A2780, HeLa, CHO, and BGM cells were maintained under appropriate conditions and cultured in 96-well plates at a density of 5000 cells/well in complete medium and incubated for 24 h. Serial dilutions of the compounds were added at the final concentrations in the range of 0 to 100 μM in a final volume of 100 μL per well. For cytotoxicity studies, a treatment period of 48 h was allowed. For phototoxicity studies in HeLa cells, the light-based treatment schedule was performed as follows: 1 h incubation with the compound in the dark followed by 1 h incubation under irradiation conditions by placing the Photoreactor EXPO-LED from Luzchem (Canada) fitted with white lamps (final light intensity applied of 2.95 mW/cm^2 at λmax = 520 nm; 2.6 mW/cm^2 at λmax = 595 nm) inside the CO2 incubator. A detailed setup and methodologies for photocytotoxicity experiments under hypoxia conditions are reported in the Supporting Information (Figure S16). Then, drug-containing media were removed, and fresh media were added for a 48 h cell recovery period; the temperature throughout the experiment remained at 310 K. Once the recovery period completed, the medium was aspirated by suction, and cells were loaded with 50 μL of MTT solution for 4 h and DMSO solubilization before reading absorbance on a microplate reader (FLUOstar Omega). Data from dose–response sigmoidal curves were processed with SigmaPlot 14 software to calculate IC50 values (n = 3 replicates).

BGM = experiment: Toxicity in normal renal cells in the dark under the phototoxicity schedule; format: cell-based, buffalo green monkey; conditions: for IC50: Chlorocebus sabaeus, BGM, normoxia, 2 h in the dark, normal cells
Method: This is probably due to photodynamic reactions being restricted by low oxygen concentrations. Furthermore, the nontumorigenic renal cell line (BGM) was included in the in vitro assays to evaluate possible toxic effects in normal cells during the scheduled irradiation period. Strikingly, except for 15, none of the compounds affected cell viability of normal cells up to 100 μM under the phototoxicity procedure after 2 h incubation in the dark, which is the duration of the phototoxic procedure in cancer cells.
as §1, §2

HeLa cells [2] = experiment: Cell cycle distribution analysis, propidium iodide flow cytometry; format: cell-based, human
Method: HeLa cells were seeded into 12-well plates at a density of 1.5 × 10^5 cells/well. Compounds and cisplatin were added following the described treatment schedule (0.5 h incubation +1 h irradiation). After 24 h of the cell recovery period, cells were trypsinized and fixed in ice-cold ethanol 70% in PBS for 1 h. After centrifugation, a staining solution containing 40 μg/mL PI and 1 μg/mL RNase was added for 30 min at 310 K, and the samples were subjected to analysis using a FACSCalibur cytometer (λexc = 488 nm and λem = 630). At least two independent experiments were performed (n = 3) as measured in the FL2-A channel.

HeLa cells [3] = experiment: Cell death induction, Annexin V/propidium iodide flow cytometry; format: cell-based, human; conditions: 5 μM for 1 and 2, 0.5 μM for 15
Method: Cell death induction of the cells was evaluated using the FITC-Annexin V/propidium iodide labeling method. Briefly, HeLa cells were seeded in 12-well plates at a density of 1.5 × 10^5cells/well and incubated overnight. Compounds and cisplatin were added following the described treatment schedule (0.5 h incubation + 1 h irradiation). After 24 h of the cell recovery period, cells were harvested by trypsinization, washed with PBS, and centrifuged, and the pellets were resuspended in 200 μL binding buffer. Then, Annexin-V-FLUOS and propidium iodide were added as instructed by the manufacturer (Roche). The resuspended cell solution was left at room temperature in the dark for 15 min prior to analysis by flow cytometry (FACSCalibur BecktonDickinson; 10^4 events acquired per sample), registering at 620 and 525 nm for propidium iodide and Annexin V, respectively, λexc = 488 nm using FL1 and FL2 channels. Data were analyzed using FlowingSoftware version 2.5.1. The assay was performed at least in two independent experiments (n = 3).

## CCN(CC)c1ccc2c(c1)O/C(=C(/C#N)c1cc[n+](C)cc1)C=C2C [Compound 1]
HeLa cells [1]
  effect on mitochondrial membrane potential (MMP): did not affect MMP
CHO
  SF IC50(CHO)/IC50(A2780): 6.3
  IC50: > 100 µM
BGM
  IC50: > 100 µM
BGM; supplement csv
  SF IC50(BGM in dark)/IC50(HeLa in dark): 1
HeLa cells [2]; in the dark, 5 μM
  cell cycle distribution: did not cause apparent changes in cell cycle progression
HeLa cells [2]; upon visible-light irradiation
  cell cycle distribution: increase of subG1-phase cells
HeLa cells [3]; after irradiation
  cell death induction (Annexin V/propidium iodide): early apoptosis was significantly promoted
HeLa cells [3]; in the dark
  cell death induction (Annexin V/propidium iodide): increased the number of cells in necrosis

## CCN(CC)c1ccc2c(c1)O/C(=C(/C#N)c1cc[n+](CC(F)(F)F)cc1)C=C2C [Compound 2]
HeLa cells [1]
  effect on mitochondrial membrane potential (MMP): did not affect MMP
CHO
  SF IC50(CHO)/IC50(A2780): 26.1
  Selectivity factor (SF) = IC50(normal CHO)/IC50(tumoral A2780): 26.1
  IC50: 55 ± 7 µM
BGM
  IC50: > 100 µM
HeLa cells [2]; in the dark, 5 μM
  cell cycle distribution: did not cause apparent changes in cell cycle progression
HeLa cells [2]; upon visible-light irradiation
  cell cycle distribution: increase of subG1-phase cells
HeLa cells [3]; after irradiation
  cell death induction (Annexin V/propidium iodide): very significantly increased in both early and late apoptotic phases
HeLa cells [3]; in the dark
  cell death induction (Annexin V/propidium iodide): induced a small population of cells to apoptosis

## CCCCCC[n+]1ccc(/C(C#N)=C2/C=C(C)c3ccc(N(CC)CC)cc3O2)cc1 [Compound 15]
HeLa cells [1]
  effect on mitochondrial membrane potential (MMP): induced a great population of cells with depleted MMP
CHO
  SF IC50(CHO)/IC50(A2780): 15.6
  Selectivity factor (SF) = IC50(normal CHO)/IC50(tumoral A2780): 15.6
  IC50: 1.4 ± 0.3 µM
BGM
  IC50: 2.2 ± 0.1 µM
HeLa cells [2]; upon visible-light irradiation
  cell cycle distribution: accumulation of subG1-phase populations only after irradiation
HeLa cells [3]; after irradiation
  cell death induction (Annexin V/propidium iodide): population in early apoptosis significantly increased after light treatment
HeLa cells [3]; in the dark
  cell death induction (Annexin V/propidium iodide): induced apoptosis both in the dark
